According to patent US7138262B1, “High mannose proteins and methods of making high mannose proteins” (Shire Human Genetic Therapies, Inc., priority 2000, dated 2006):

Key:
[1] = test system: HT-1080 cells producing GA-GCB; assay: Isoelectric focusing (IEF) analysis of GA-GCB glycoforms from cells treated with kifunensine or swainsonine; assay type: cell-based, human; settings: for apparent isoelectric point (pI) of GA-GCB: 0.1 to 2 μg/mL drug, samples from the third day
Procedure: HT-1080 cells producing GA-GCB were plated in duplicate 6-well plates and the Production Medium adjusted to the following concentrations of kifunensine or swainsonine: 0 (no drug), 0.1, 0.25, 0.5, 1, and 2 μg/mL. The medium was harvested and the cells refed every 24 hours for three days. The samples from the third day were subjected to isoelectric focusing (IEF) analysis. The effect of kifunensine and swainsonine on the molecular charge of GA-GCB is shown by the IEF analysis.

mouse J774E cells = assay: Internalization (uptake) of glucocerebrosidase into J774E macrophage cells, with or without mannan; assay type: cell-based; settings: producing cells treated with 1 μg/mL of drug
Procedure: GA-GCB produced in HT-1080 cells was used in an in vitro assay to determine uptake efficiency in a mouse macrophage cell line. The specific objective of the experiment was to determine the absolute and mannose receptor-specific uptake of GA-GCB in mouse J774E cells. One day prior to assay, J774E cells were plated at 50,000 cells/cm^2 in 12 well plates in Growth Medium. For the assay, 0.5 mL of Production Medium (DMEM/F12), 0% calf serum) containing 50 nM vitamin D3 (1,2-5, Dihydroxy vitamin D3) was added to the cells. Unpurified GA-GCB (from harvest 4, Table 1) was added to the test wells at a final concentration of 10 μg/mL in the presence or absence of 2 μg/mL mannan (a competitor for the mannose receptor). Three different forms of GA-GCB were used: GA-GCB from cells treated with kifunensine (1 μg/mL), GA-GCB from cells treated with swainsonine (1 μg/mL), and GA-GCB (1 μg/mL) from untreated cells. Control wells received no GA-GCB. The wells were incubated for 4 hours at 37° C., then washed extensively in buffered saline, scraped into GA-GCB enzyme reaction buffer, passed through 2 freeze/thaw cycles, and clarified by centrifugation. The supernantant was then quantitatively tested for enzyme activity and total protein. Internalization of GA-GCB into mouse J744E cells is shown in Table 2 and is reported as Units/mg of cell lysate. […]

[2] = test system: HT-1080 cells producing GA-GCB; assay: Roller bottle production of glucocerebrosidase (GA-GCB) in cells treated with mannosidase inhibitors; assay type: cell-based, human; settings: for Glucocerebrosidase Activity, Harvest 1: medium harvested about every 24 hours, specific activity 2,500 Units/mg
Procedure: Ten roller bottles (surface area, 1700 cm^2 each) were seeded in Growth Medium (DMEM with 10% calf serum) with HT-1080 cells producing GA-GCB. Following two weeks of growth, the medium was aspirated and 200 mL of fresh Production Medium (DMEM/F12, 0% calf serum) was added to three sets of roller bottles. Two sets of 4 roller bottles were treated with 1 μg/mL of either kifunensine or swainsonine. The third group of two roller bottles received no drug treatment. After approximately 24 hours, the medium from each roller bottle was harvested, pooled and a sample taken for GA-GCB enzymatic activity analysis. This procedure was repeated for seven days. […] Absolute levels of the enzyme, however, varied according to drug treatment group with the following average GA-GCB production levels observed across the seven harvests: 38.3±3.5 mg/L (control, no drug treatment), 24.5±4.0 mg/L (swainsonine, 1 μg/mL), and 21.3±2,8 mg/L (kifunensine, 1 μg/mL).

[3] = inhibitor 1 μg/ml, across seven harvests

| SMILES | apparent isoelectric point (pI) of GA-GCB [1] | shift in pI of GA-GCB, compared between the drugs ([1]; highest concentration tested (2 μg/mL)) | greater uptake of GA-GCB with kifunensine than with swainsonine (mouse J774E cells) | reduction of GA-GCB production relative to control ([2]; inhibitor 1 μg/mL, average of seven harvests) [%] | Glucocerebrosidase Activity, Average ± Standard Deviation [2, 3] [mg/L] | Glucocerebrosidase Activity, Harvest 2 ([2]; inhibitor 1 μg/ml) [mg/L] | Glucocerebrosidase Activity, Harvest 3 ([2]; inhibitor 1 μg/ml) [mg/L] | Glucocerebrosidase Activity, Harvest 4 ([2]; inhibitor 1 μg/ml) [mg/L] | Glucocerebrosidase Activity, Harvest 5 ([2]; inhibitor 1 μg/ml) [mg/L] | Glucocerebrosidase Activity, Harvest 6 ([2]; inhibitor 1 μg/ml) [mg/L] | Glucocerebrosidase Activity, Harvest 7 ([2]; inhibitor 1 μg/ml) [mg/L] | Glucocerebrosidase Activity, Harvest 1 ([2]; inhibitor 1 μg/ml) [mg/L] | average GA-GCB production level across the seven harvests ([2]; inhibitor 1 μg/mL) [mg/L] | GA-GCB production level, average ± SD [2, 3] [mg/L] |
| --- | --- | --- | --- | --- | --- | --- | --- | --- | --- | --- | --- | --- | --- | --- |
| O=C1N[C@@H]2[C@@H](O)[C@@H](O)[C@H](O)[C@@H](CO)N2C1=O [Kifunensine, kifunensine] | concentration dependent increase | much larger shift in pI than swainsonine | approximately 2 fold | 44 | 21.3 ± 2.8 | 22.9 | 17.7 | 21.2 | 18.4 | 21.0 | 22.0 | 26.0 | – | – |
| O[C@H]1[C@H]2[C@H](O)CCCN2C[C@H]1O [Swainsonine, swainsonine] | concentration dependent increase | – | – | – | – | 17.4 | 28.5 | 27.0 | 22.9 | 25.0 | 22.3 | 28.6 | 24.5 ± 4.0 | 24.5 ± 4.0 |
